Results taken from patent US20040127511A1 (Pharmacia Corporation, priority 2002, published 2004).
Counter-ions that a name gives are not always drawn. Like-named read-outs stand apart in the source and are kept apart here.

Tests used:
TNFα release, U937 cells = test: U937 Cell TNFα Release Assay (LPS-stimulated, TNFα ELISA); assay type: cell-based; settings: Homo sapiens, read-out: TNFα release assay IC50
Method: U937 Cell TNFα Release Assay
The human monocyte-like cell line, U937 (ATCC #CRL-1593.2), is cultured in RPMI1640 media with 10% heat-inactivated fetal calf serum (GIBCO), glutamine and pen/strep at 37° C. and 5% CO2. Differentiation of U937 to monocytic/macrophage-like cells is induced by the addition of phorbol12-myristate 13-acetate (Sigma) at final concentration of 20 ng/ml to a culture of U937 cells at ˜0.5 million cells/ml and incubated for 24 hrs. The cells are centrifuged, washed with PBS and resuspended in fresh media without PMA and incubated for 24 hrs. Cells adherent to the culture flask are harvested by scraping, centrifugation, and resuspended in fresh media to 2 million cells/ml, and 0.2 ml is aliquoted to each of 96 wells in flat-bottom plate. Cells are then incubated for an additional 24 hrs to allow for recovery. […]
ELISA plates (NUNC-Immuno™ Plate Maxisorb™ Surface) were coated with purified mouse monoclonal IgG1 anti-human TNFα antibody (R&D Systems #MAB610; 1.25 ug/ml in sodium bicarbonate pH 8.0, 0.1 ml/well) and incubated at 4° C. […] Enzymatic conversion of ABTS to colored product was measured after 5-30 minutes using a SpectroMax 340 spectrophotometer (Molecular Devices) at 405 nm. TNF levels were quantitated from a recombinant human TNFα (R&D Systems #210-TA-010) standard curve using a quadratic parameter fit generated by SoftMaxPRO software. […]

[1] = test system: LPS-induced TNFα production; test: Rat LPS assay: Lipopolysaccharide (LPS)-Induced TNFα Production; assay type: in vivo; settings: 20 mpk (IP); inhibition of serum TNFα vs vehicle
MAPKAPK2 = MAPKAPK2 (Homo sapiens, UniProt P49137); test: biochemical; assay type: biochemical
Method: The phosphorylation of HSP-peptide ([sequence]) by MAPKAPK2 was measured using an anion exchange resin capture assay method. […] The reaction was terminated and [γ^33P]ATP was removed from solution by the addition of 150 μl of AG 1×8 ion exchange resin in 900 mM sodium formate pH 3.0. A 50 μl aliquot of head volume was removed from the quenched reaction mixture and added to a 96-well plate, 150 μl of Microscint-40 (Packard) was added and the amount of phosphorylated-peptide was determined.
Compounds are evaluated as potential inhibitors of the MK2 kinase by measuring their effects on MK2 phosphorylation of the peptide substrate. Compounds may be screened initially at two concentrations prior to determination of IC50 values. Screening results are expressed as percent inhibition at the concentrations of compound tested. For IC50 value determinations, compounds are tested at six concentrations in ten-fold serial dilutions with each concentration tested in triplicate. Results are expressed as IC50 values in micromolar. The assay is performed at a final concentration of 2% DMSO.

[2] = HSP-peptide substrate, 0.03 mM ATP, 2% DMSO, read-out: MK-2 Avg. IC50

Chain of MAPKAPK2 (P49137 whole entry, species assumed): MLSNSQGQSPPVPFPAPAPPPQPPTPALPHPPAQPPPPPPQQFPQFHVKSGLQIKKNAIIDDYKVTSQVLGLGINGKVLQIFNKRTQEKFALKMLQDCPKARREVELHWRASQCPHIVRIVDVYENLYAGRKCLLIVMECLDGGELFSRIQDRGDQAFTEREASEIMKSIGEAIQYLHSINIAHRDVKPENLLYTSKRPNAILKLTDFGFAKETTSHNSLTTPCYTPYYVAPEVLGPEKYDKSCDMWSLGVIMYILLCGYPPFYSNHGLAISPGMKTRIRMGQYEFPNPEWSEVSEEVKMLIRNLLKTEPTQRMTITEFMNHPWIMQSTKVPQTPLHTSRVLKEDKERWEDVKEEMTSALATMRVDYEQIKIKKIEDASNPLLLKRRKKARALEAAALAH

Compound | IC50 (MAPKAPK2; [2]) | further results
N#Cc1c(N)nc2c(c1N)Cc1ccc(OCCN)cc1O2 [No. 19, 2,4-diamino-8-(2-aminoethoxy)-5H-chromeno[2,3-b]pyridine-3-carbonitrile hydrochloride] | – | IC50 (TNFα release, U937 cells; U-937, 4 h): 6.9 µM; Rat LPS Assay inhibition [1]: 88%
N#Cc1c(N)nc2c(c1N)Cc1ccc(OCCN3CCCC3)cc1O2.O=C(O)C(F)(F)F [No. 25, 2,4-diamino-8-(2-pyrrolidin-1-ylethoxy)-5H-chromeno[2,3-b]pyridine-3-carbonitrile] | – | IC50 (TNFα release, U937 cells; U-937, differentiated U937 cells, LPS 100 ng/ml, 4 hrs): 2.9 µM; Rat LPS Assay inhibition [1]: 60%
N#Cc1c(N)nc2c(c1N)Cc1ccc(OCCN3CCOCC3)cc1O2 [No. 28, trifluoroacetate] | – | IC50 (MAPKAPK2): 0.91 µM
Cc1ccc2c(c1)Oc1nc(N)c(C#N)c(N)c1C2 [No. 42, trifluoroacetate] | ≥ 200 µM | –
COc1cc(OC)c2c(c1)Oc1nc(N)c(C#N)c(N)c1C2 [No. 62, trifluoroacetate] | ≥ 200 µM | –
COc1cccc2c1Cc1c(nc(N)c(C#N)c1N)O2 [No. 70, trifluoroacetate] | ≥ 200 µM | –
N#Cc1c(N)nc2c(c1N)Cc1cc(OC(F)(F)F)ccc1O2 [No. 70, trifluoroacetate] | ≥ 200 µM | –
N#Cc1c(N)nc2c(c1N)Cc1cccc(C(=O)O)c1O2 [No. 81, trifluoroacetate] | – | IC50 (MAPKAPK2): ≥ 200 µM
N#Cc1c(N)nc2c(c1N)Cc1cccc(OCc3ccncc3)c1O2 [No. 83] | ≥ 200 µM | –
COc1cc2c(cc1OC)Oc1nc(N)c(C#N)c(NCCN3C(=O)c4ccccc4C3=O)c1C2 [No. 94] | ≥ 200 µM | –
CCNc1nc2c(c(NCC)c1C#N)Cc1cc(OC)c(OC)cc1O2 [No. 103, trifluoroacetate] | ≥ 200 µM | –
